Test results as given in patent publication US7799809B2, “Carboxamide compounds and their use as calpain inhibitors” (Abbott GmbH & Co. KG, priority 2006, dated 2010).

Experiments:
Format in all cases: biochemical
[1] = biological target: T1, cathepsin K (Homo sapiens, UniProt P43235); assay: Cathepsin K enzyme inhibition in vitro (kinetic fluorescence assay); conditions: cathepsin K activated from recombinant human procathepsin K vs calpain I
T1 construct: purchased Calbiochem 342001; host or cells: E. coli
T1 sequence (P43235 115-329): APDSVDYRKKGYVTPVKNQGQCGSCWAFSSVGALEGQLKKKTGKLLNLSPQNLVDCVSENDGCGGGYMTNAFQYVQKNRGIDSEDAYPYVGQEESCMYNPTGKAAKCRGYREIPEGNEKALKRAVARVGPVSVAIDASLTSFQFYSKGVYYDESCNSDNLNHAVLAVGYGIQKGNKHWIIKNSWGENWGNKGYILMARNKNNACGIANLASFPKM

[2] = biological target: T2, cathepsin L (Homo sapiens, UniProt P07711); assay: Cathepsin L enzyme inhibition in vitro (kinetic fluorescence assay); conditions: cathepsin L isolated from human liver vs calpain I
T2 construct: cathepsin L—isolated from human liver (Calbiochem #219402); purchased Calbiochem 219402; host or cells: human liver (tissue-derived)
How it was run: (§1)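 cat B 0.25 nM + Z-Phe-Arg-AMC 100 μM; cat L 1 nM + Z-Phe-Arg-AMC 2 μM; cat S 0.5 nM (E. coli-expressed) + Z-Val-Val-Arg-AMC 20 μM. 50 mM MES pH 6.0, 2.5 mM L-Cys, RT. Ex 390/em 460, kinetic; Ki app = Cheng-Prusoff from IC50, mean of 2–4 curves.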

[3] = biological target: T3, cathepsin B (Homo sapiens, UniProt P07858); assay: Cathepsin B enzyme inhibition in vitro (kinetic fluorescence assay); conditions: cathepsin B isolated from human liver vs calpain I
T3 construct: cathepsin B—isolated from human liver (Calbiochem #219362); purchased Calbiochem 219362; host or cells: human liver (tissue-derived)
How it was run: as §1

[4] = biological target: T4, cathepsin S (Homo sapiens, UniProt P25774); assay: Cathepsin S enzyme inhibition in vitro (kinetic fluorescence assay); conditions: recombinant human cathepsin S vs calpain I
T4 construct: purchased Calbiochem 219343; host or cells: E. coli
How it was run: as §1

T2 sequence (P07711 114-333): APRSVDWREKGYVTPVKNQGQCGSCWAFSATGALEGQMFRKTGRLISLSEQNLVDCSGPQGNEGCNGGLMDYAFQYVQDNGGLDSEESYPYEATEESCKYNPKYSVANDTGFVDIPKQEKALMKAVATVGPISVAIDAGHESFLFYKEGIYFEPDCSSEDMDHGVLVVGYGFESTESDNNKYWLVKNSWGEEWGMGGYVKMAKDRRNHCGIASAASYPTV
T4 sequence (P25774 115-331): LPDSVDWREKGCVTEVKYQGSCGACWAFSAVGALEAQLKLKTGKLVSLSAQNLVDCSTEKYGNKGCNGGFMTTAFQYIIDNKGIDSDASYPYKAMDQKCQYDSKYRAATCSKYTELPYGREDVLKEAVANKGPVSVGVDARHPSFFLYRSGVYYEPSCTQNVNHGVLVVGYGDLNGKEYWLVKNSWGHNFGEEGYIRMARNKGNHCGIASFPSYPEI

SMILES | Sel cat. K: Ki(cathepsin K)/Ki(calpain) ratio [1] | Sel cat. L: Ki(cathepsin L)/Ki(calpain) ratio [2] | Sel cat. B: Ki(cathepsin B)/Ki(calpain) ratio [3] | Sel cat. S: Ki(cathepsin S)/Ki(calpain) ratio [4]
COc1ccc2c(c1)OCc1cn(-c3ncccc3C(=O)NC(Cc3ccccc3)C(=O)C(N)=O)nc1-2 (centres unmarked) [Example 142, N-[3-Amino-2,3-dioxo-1-(phenylmethyl)propyl]-2-[7-(methyloxy)chromeno[4,3-c]pyrazol-2(4H)-yl]pyridine-3-carboxamide] | + (+ means 10≦Ki(cathepsin K)/Ki(calpain)<30) | ++ (++ means a Ki(cathepsin L)/Ki(calpain) ratio of ≧50) | + (+ means 10≦Ki(cathepsin B)/Ki(calpain)<30) | ++ (++ means a Ki(cathepsin S)/Ki(calpain) ratio of ≧100)
NC(=O)C(=O)C(Cc1ccccc1)NC(=O)c1cccnc1-n1ccc(-c2ccc(Cl)cc2Cl)n1 (centres unmarked) [Example 79, N-(3-Amino-1-benzyl-2,3-dioxopropyl)-2-[3-(2,4-dichlorophenyl)-1H-pyrazol-1-yl]nicotinamide] | ++ (++ means a Ki(cathepsin K)/Ki(calpain) ratio of ≧30) | ++ (++ means a Ki(cathepsin L)/Ki(calpain) ratio of ≧50) | ++ (++ means a Ki(cathepsin B)/Ki(calpain) ratio of ≧30) | ++ (++ means a Ki(cathepsin S)/Ki(calpain) ratio of ≧100)
NC(=O)C(=O)C(Cc1ccccc1)NC(=O)c1cccnc1-n1ccc(-c2cc(F)cc(F)c2)n1 (centres unmarked) [Example 91, N-[3-Amino-2,3-dioxo-1-(phenylmethyl)propyl]-2-[3-(3,5-difluorophenyl)-1H-pyrazol-1-yl]pyridine-3-carboxamide] | + (+ means 10≦Ki(cathepsin K)/Ki(calpain)<30) | ++ (++ means a Ki(cathepsin L)/Ki(calpain) ratio of ≧50) | ++ (++ means a Ki(cathepsin B)/Ki(calpain) ratio of ≧30) | ++ (++ means a Ki(cathepsin S)/Ki(calpain) ratio of ≧100)
NC(=O)C(=O)C(Cc1ccccc1)NC(=O)c1cccnc1-n1ccc(-c2c(F)ccc(Cl)c2Cl)n1 (centres unmarked) [Example 120, N-[3-Amino-2,3-dioxo-1-(phenylmethyl)propyl]-2-[3-(2,3-dichloro-6-fluorophenyl)-1H-pyrazol-1-yl]pyridine-3-carboxamide] | ++ (++ means a Ki(cathepsin K)/Ki(calpain) ratio of ≧30) | + (+ means 30≦Ki(cathepsin L)/Ki(calpain)<50) | ++ (++ means a Ki(cathepsin B)/Ki(calpain) ratio of ≧30) | ++ (++ means a Ki(cathepsin S)/Ki(calpain) ratio of ≧100)
COc1ccc(CC(NC(=O)c2cccnc2-n2ccc(-c3ccc(F)cc3)n2)C(=O)C(N)=O)cc1 (centres unmarked) [Example 81, N-[3-Amino-1-(4-methoxybenzyl)-2,3-dioxopropyl]-2-[3-(4-fluorophenyl)-1H-pyrazol-1-yl]nicotinamide] | + (+ means 10≦Ki(cathepsin K)/Ki(calpain)<30) | ++ (++ means a Ki(cathepsin L)/Ki(calpain) ratio of ≧50) | + (+ means 10≦Ki(cathepsin B)/Ki(calpain)<30) | ++ (++ means a Ki(cathepsin S)/Ki(calpain) ratio of ≧100)
NC(=O)C(=O)C(Cc1ccccc1)NC(=O)c1cccnc1-n1ccc(-c2ccccc2Cl)n1 (centres unmarked) [Example 54, N-(3-Amino-1-benzyl-2,3-dioxopropyl)-2-[3-(2-chlorophenyl)-1H-pyrazol-1-yl]nicotinamide] | ++ (++ means a Ki(cathepsin K)/Ki(calpain) ratio of ≧30) | ++ (++ means a Ki(cathepsin L)/Ki(calpain) ratio of ≧50) | ++ (++ means a Ki(cathepsin B)/Ki(calpain) ratio of ≧30) | ++ (++ means a Ki(cathepsin S)/Ki(calpain) ratio of ≧100)
NC(=O)C(=O)C(Cc1ccccc1)NC(=O)c1cccnc1-n1ccc(-c2cccc(OC(F)(F)F)c2)n1 (centres unmarked) [Example 168, N-[3-Amino-2,3-dioxo-1-(phenylmethyl)propyl]-2-(3-{3-[(trifluoromethyl)oxy]phenyl}-1H-pyrazol-1-yl)pyridine-3-carboxamide] | + (+ means 10≦Ki(cathepsin K)/Ki(calpain)<30) | ++ (++ means a Ki(cathepsin L)/Ki(calpain) ratio of ≧50) | + (+ means 10≦Ki(cathepsin B)/Ki(calpain)<30) | ++ (++ means a Ki(cathepsin S)/Ki(calpain) ratio of ≧100)
COc1c(C)cc(C)cc1-c1ccn(-c2ncccc2C(=O)NC(Cc2ccccc2)C(=O)C(N)=O)n1 (centres unmarked) [Example 121, N-[3-Amino-2,3-dioxo-1-(phenylmethyl)propyl]-2-{3-[3,5-dimethyl-2-(methyloxy)phenyl]-1H-pyrazol-1-yl}pyridine-3-carboxamide] | ++ (++ means a Ki(cathepsin K)/Ki(calpain) ratio of ≧30) | ++ (++ means a Ki(cathepsin L)/Ki(calpain) ratio of ≧50) | ++ (++ means a Ki(cathepsin B)/Ki(calpain) ratio of ≧30) | ++ (++ means a Ki(cathepsin S)/Ki(calpain) ratio of ≧100)
NC(=O)C(=O)C(Cc1ccccc1)NC(=O)c1cccnc1-n1cc2c(n1)-c1ccccc1S(=O)(=O)C2 (centres unmarked) [Example 174, N-[3-Amino-2,3-dioxo-1-(phenylmethyl)propyl]-2-(5,5-dioxidothiochromeno[4,3-c]pyrazol-2(4H)-yl)pyridine-3-carboxamide] | + (+ means 10≦Ki(cathepsin K)/Ki(calpain)<30) | ++ (++ means a Ki(cathepsin L)/Ki(calpain) ratio of ≧50) | + (+ means 10≦Ki(cathepsin B)/Ki(calpain)<30) | ++ (++ means a Ki(cathepsin S)/Ki(calpain) ratio of ≧100)
COc1ccc(Cl)cc1-c1ccn(-c2ncccc2C(=O)NC(Cc2ccccc2)C(=O)C(N)=O)n1 (centres unmarked) [Example 131, N-[3-Amino-2,3-dioxo-1-(phenylmethyl)propyl]-2-{3-[5-chloro-2-(methyloxy)phenyl]-1H-pyrazol-1-yl}pyridine-3-carboxamide] | ++ (++ means a Ki(cathepsin K)/Ki(calpain) ratio of ≧30) | ++ (++ means a Ki(cathepsin L)/Ki(calpain) ratio of ≧50) | ++ (++ means a Ki(cathepsin B)/Ki(calpain) ratio of ≧30) | ++ (++ means a Ki(cathepsin S)/Ki(calpain) ratio of ≧100)
NC(=O)C(=O)C(Cc1ccccc1)NC(=O)c1cccnc1-n1ccc(-c2c(Cl)cccc2Cl)n1 (centres unmarked) [Example 95, N-[3-Amino-2,3-dioxo-1-(phenylmethyl)propyl]-2-[3-(2,6-dichlorophenyl)-1H-pyrazol-1-yl]pyridine-3-carboxamide] | ++ (++ means a Ki(cathepsin K)/Ki(calpain) ratio of ≧30) | ++ (++ means a Ki(cathepsin L)/Ki(calpain) ratio of ≧50) | ++ (++ means a Ki(cathepsin B)/Ki(calpain) ratio of ≧30) | ++ (++ means a Ki(cathepsin S)/Ki(calpain) ratio of ≧100)
NC(=O)C(=O)C(Cc1ccccc1)NC(=O)c1cccnc1-n1ccc(-c2cccc(OCc3ccccc3)c2)n1 (centres unmarked) [Example 96, N-[3-Amino-2,3-dioxo-1-(phenylmethyl)propyl]-2-(3-{3-[(phenylmethyl)oxy]phenyl}-1H-pyrazol-1-yl)pyridine-3-carboxamide] | ++ (++ means a Ki(cathepsin K)/Ki(calpain) ratio of ≧30) | ++ (++ means a Ki(cathepsin L)/Ki(calpain) ratio of ≧50) | ++ (++ means a Ki(cathepsin B)/Ki(calpain) ratio of ≧30) | ++ (++ means a Ki(cathepsin S)/Ki(calpain) ratio of ≧100)
NC(=O)C(=O)C(Cc1ccccc1)NC(=O)c1cccnc1-n1ccc(-c2ccc(N3CCOCC3)cc2Cl)n1 (centres unmarked) [Example 99, N-[3-Amino-2,3-dioxo-1-(phenylmethyl)propyl]-2-[3-(2-chloro-4-morpholin-4-ylphenyl)-1H-pyrazol-1-yl]pyridine-3-carboxamide] | ++ (++ means a Ki(cathepsin K)/Ki(calpain) ratio of ≧30) | ++ (++ means a Ki(cathepsin L)/Ki(calpain) ratio of ≧50) | ++ (++ means a Ki(cathepsin B)/Ki(calpain) ratio of ≧30) | ++ (++ means a Ki(cathepsin S)/Ki(calpain) ratio of ≧100)
NC(=O)C(=O)C(Cc1ccccc1)NC(=O)c1cccnc1-n1ccc(-c2c(F)cc(F)cc2F)n1 (centres unmarked) [Example 116, N-[3-Amino-2,3-dioxo-1-(phenylmethyl)propyl]-2-[3-(2,4,6-trifluorophenyl)-1H-pyrazol-1-yl]pyridine-3-carboxamide] | + (+ means 10≦Ki(cathepsin K)/Ki(calpain)<30) | ++ (++ means a Ki(cathepsin L)/Ki(calpain) ratio of ≧50) | ++ (++ means a Ki(cathepsin B)/Ki(calpain) ratio of ≧30) | ++ (++ means a Ki(cathepsin S)/Ki(calpain) ratio of ≧100)
